Test results reported in PMC6804824, “Volatile composition and classification of Lilium flower aroma types and identification, polymorphisms, and alternative splicing of their monoterpene synthase genes” (Horticulture Research, 2019).
Residue numbers refer to the chain shown, from its start.

Columns and labels:
Assay in all cases: GC-MS product analysis (SPME)
Assay type in all cases: biochemical
Conditions in all cases: 30 uM GPP, 10 mM MgCl2, pH 7.2, 30 C, 3 h; products (E)-beta-ocimene, alpha-pinene, limonene; results call protein purified, methods use sonicated cells
[1] = target: T1, LsoTPS-1 / LrlTPS-1 (Lilium hybrid cultivar, UniProt A0A6M2RDI7)
T1 construct: full length, 586 aa (ORF 1761 bp), plastid transit peptide intact; pTYB12 fusion vector; E. coli BL21(DE3); about 67 kDa
T1 sequence (A0A6M2RDI7 1-586): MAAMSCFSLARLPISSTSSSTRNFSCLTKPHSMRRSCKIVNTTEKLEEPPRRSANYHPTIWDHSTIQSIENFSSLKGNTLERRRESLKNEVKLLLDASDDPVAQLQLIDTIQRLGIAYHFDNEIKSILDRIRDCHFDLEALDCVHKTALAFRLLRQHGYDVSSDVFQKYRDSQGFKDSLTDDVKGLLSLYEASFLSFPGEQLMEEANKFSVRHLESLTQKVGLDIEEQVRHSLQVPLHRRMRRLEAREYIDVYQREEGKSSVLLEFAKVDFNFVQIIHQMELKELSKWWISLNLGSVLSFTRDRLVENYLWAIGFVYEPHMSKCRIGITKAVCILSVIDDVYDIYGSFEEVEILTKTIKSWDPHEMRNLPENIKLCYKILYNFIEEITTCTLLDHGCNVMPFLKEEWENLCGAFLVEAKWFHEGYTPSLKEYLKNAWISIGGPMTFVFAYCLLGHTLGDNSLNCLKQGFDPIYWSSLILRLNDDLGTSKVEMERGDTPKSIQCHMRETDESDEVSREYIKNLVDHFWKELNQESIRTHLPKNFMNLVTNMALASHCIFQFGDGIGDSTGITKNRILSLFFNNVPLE

[2] = target: T2, LrlTPS-3 (Lilium hybrid cultivar, UniProt A0A6M2RDN4)
T2 construct: full length, 548 aa (ORF 1647 bp), plastid transit peptide intact; pTYB12 fusion vector; E. coli BL21(DE3); about 62 kDa
T2 sequence (A0A6M2RDN4 1-548): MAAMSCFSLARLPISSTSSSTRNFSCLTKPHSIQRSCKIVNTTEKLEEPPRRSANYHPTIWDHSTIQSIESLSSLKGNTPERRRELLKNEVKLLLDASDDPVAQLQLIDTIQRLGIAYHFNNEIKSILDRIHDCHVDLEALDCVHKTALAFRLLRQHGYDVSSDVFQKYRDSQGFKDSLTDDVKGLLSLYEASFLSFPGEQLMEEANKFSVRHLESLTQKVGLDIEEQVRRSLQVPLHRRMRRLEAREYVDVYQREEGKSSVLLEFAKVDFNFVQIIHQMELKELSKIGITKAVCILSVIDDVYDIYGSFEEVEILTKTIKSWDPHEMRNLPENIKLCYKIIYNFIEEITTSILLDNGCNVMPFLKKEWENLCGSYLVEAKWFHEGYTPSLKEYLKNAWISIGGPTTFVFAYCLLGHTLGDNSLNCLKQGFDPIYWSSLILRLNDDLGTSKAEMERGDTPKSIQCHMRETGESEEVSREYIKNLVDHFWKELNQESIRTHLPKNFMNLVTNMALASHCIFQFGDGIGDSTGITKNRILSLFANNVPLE

[3] = target: T3, LsoTPS-2 (Lilium hybrid cultivar, UniProt A0A2H4R3S6)
T3 construct: gene TPS; full length, 590 aa (ORF 1773 bp), plastid transit peptide intact; pTYB12 fusion vector; E. coli BL21(DE3); about 68 kDa
T3 sequence (A0A2H4R3S6 1-590): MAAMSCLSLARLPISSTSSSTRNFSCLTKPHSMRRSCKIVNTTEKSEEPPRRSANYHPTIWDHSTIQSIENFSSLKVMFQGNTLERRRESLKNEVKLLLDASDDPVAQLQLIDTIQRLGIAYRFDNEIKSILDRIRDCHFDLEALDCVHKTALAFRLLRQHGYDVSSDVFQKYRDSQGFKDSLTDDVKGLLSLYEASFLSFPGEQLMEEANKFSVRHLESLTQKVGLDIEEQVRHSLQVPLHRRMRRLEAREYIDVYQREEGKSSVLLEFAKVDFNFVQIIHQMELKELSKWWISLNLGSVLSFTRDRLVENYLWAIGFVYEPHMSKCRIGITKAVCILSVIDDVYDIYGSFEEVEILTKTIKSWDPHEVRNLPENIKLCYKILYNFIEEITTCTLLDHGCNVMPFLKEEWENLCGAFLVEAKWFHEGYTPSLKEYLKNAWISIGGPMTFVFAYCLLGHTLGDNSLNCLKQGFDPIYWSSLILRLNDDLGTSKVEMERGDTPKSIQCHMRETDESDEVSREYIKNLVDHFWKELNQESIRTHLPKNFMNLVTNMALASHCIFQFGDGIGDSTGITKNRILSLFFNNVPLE

[4] = target: T4, LsoTPS-3 (Lilium hybrid cultivar, UniProt A0A6M2RCV8)
T4 construct: full length, 548 aa (ORF 1647 bp), plastid transit peptide intact; pTYB12 fusion vector; E. coli BL21(DE3); about 62 kDa
T4 sequence (A0A6M2RCV8 1-548): T2 sequence (A0A6M2RDN4 1-548) with P80L, R231H

Q: `CC(C)=CCC/C(C)=C/COP(=O)(O)OP(=O)(O)O` [GPP] was tested. Which “GC-MS product analysis (SPME)” value [1] did it give?
A: all five proteins were able to convert GPP into (E)-β-ocimene, α-pinene, and limonene

Q: And the “GC-MS product analysis (SPME)” value [2]?
A: all five proteins were able to convert GPP into (E)-β-ocimene, α-pinene, and limonene

Q: What about the “GC-MS product analysis (SPME)” value [3] of the same molecule?
A: all five proteins were able to convert GPP into (E)-β-ocimene, α-pinene, and limonene

Q: And the “GC-MS product analysis (SPME)” value [4]?
A: all five proteins were able to convert GPP into (E)-β-ocimene, α-pinene, and limonene
